Results: patent US10195285B2, “AGTR1 aptamer-anticancer drug complex for cancer cell chemotherapy” (KOREA UNIVERSITY RESEARCH AND BUSINESS FOUNDATION, priority 2016, dated 2019)
{SH} = thiol group (3'-OH replaced by SH), used for disulfide linkage to a drug

Key:
[1] = system: AGTR1-positive breast cancer MCF7 cell line (MCF7-AGTR1); test: p-His3 (mitotic arrest marker) ICC/confocal in co-culture, AGTR1-positive cells; format: cell-based, human; conditions: 10 nM, 24 hr; co-culture 1:1 with BT474; HER2-not-expressed cells = MCF7-AGTR1
Protocol: (§1) (1) As produced in Example 1, the AGTR1-positive breast cancer MCF7 cell line (MCF7-AGTR1) and the AGTR1-negative breast cancer BT474 cell line (typically, MCF7 is a HER2-negative breast cancer cell line and BT474 is a HER2-positive breast cancer cell line) were co-cultured at a ratio of 1:1, and HER2 and a mitotic arrest marker, namely phospho-Histone H3 (p-[…]), were stained with ICC, the nuclei of which were stained with DAPI, and were then treated with a control (DMSO), DM1, and Aptamer-DM1 at a concentration of 10 nM for 24 hr. Thereafter, the nuclei (blue), p-[…] (green), and HER2 (red) were imaged using a confocal microscope. The number of cells in which p-[…] was detected was quantified based on whether or not AGTR1 was expressed. During the staining procedure, the MCF7-AGTR1 and BT474 cells cultured on 8-well chamber slides were fixed with 4% paraformaldehyde, washed with PBS, and cultured for 10 min with 0.2% Triton X-100. Thereafter, the cells were cultured overnight at 4° C. with primary antibodies in an antibody dilution buffer and then cultured at room temperature for 2 hr with fluorescence-conjugated secondary antibodies. Thereafter, the cells were mounted on ProLong Gold Antifade Reagent containing DAPI (4',6'-diamidine-2'-phenylindole dihydrochloride).

[2] = system: AGTR1-negative breast cancer BT474 cell line; test: p-His3 (mitotic arrest marker) ICC/confocal in co-culture, AGTR1-negative cells; format: cell-based, human; conditions: 10 nM, 24 hr; co-culture 1:1 with MCF7-AGTR1; HER2-expressed cells = BT474
Protocol: as §1

[3] = system: AGTR1-positive breast cancer cell line (MCF7-AGTR1); test: Apoptosis rate (sub-G1%) by PI DNA content flow cytometry, AGTR1-positive cells; format: cell-based, human; conditions: 10 nM, 48 hr
Protocol: (§2) (1) The AGTR1-positive breast cancer cell line (MCF7-AGTR1) and the AGTR1-negative breast cancer cell line (BT474) were treated with a control (DMSO), DM1, Aptamer, and Aptamer-DM1 at a concentration of 10 nM for 48 hr, after which the cells were acquired and fixed with 95% ethanol containing 0.5% Tween-20 for 24 hr and cultured for 30 min with propidium iodide (PI, 50 μg/ml) and RNase (50 μg/ml). Thereafter, the apoptosis rate (sub-G1%) of cancer cells was measured through DNA content analysis using flow cytometry.
(§3) (2) Typically, the cell cycle includes, depending on the amount of DNA in cells, G1 (cell growth phase), S (cell replication phase), and G2/M (cell mitotic phase). […] The results of apoptosis are represented by the percentage of sub-G1 in the cell cycle.

[4] = system: AGTR1-negative breast cancer cell line (BT474); test: Apoptosis rate (sub-G1%) by PI DNA content flow cytometry, AGTR1-negative cells; format: cell-based, human; conditions: 10 nM, 48 hr
Protocol: as §2, §3

MCF7-AGTR1 cancer cells = test: Tumor volume in breast cancer disease animal model; format: in vivo, BALB/c nude mice; conditions: 0.75 mg/kg intraperitoneally three times a week, measured for 3 weeks
Protocol: (1) Starting from the 4th day after MCF7-AGTR1 cancer cells (3×10^6 cells) were inoculated into the fourth mammary fat pads of immunodeficient 6-week-old female BALB/c nude mice, Aptamer (0.75 mg/kg) and Aptamer-DM1 (0.5 mg/kg, 0.75 mg/kg) were intraperitoneally administered three times a week. Then, the tumor volume was measured for 3 weeks. The body weights of mice were measured for 3 weeks. The tumor volume (V) was measured using a caliper and calculated according to V=(length×width^2)/2. In a Terminal deoxynucleotidyl transferase dUTP Nick End Labeling (TUNEL) assay, the tumors were removed from the mice, fixed in 10% neutral buffered formalin, and embedded in paraffin. The 4 μm thick tissue section was mounted on a positively charged glass slide, deparaffinized with xylene, and […] through a graded alcohol series. After antigen retrieval, the above tissue section was boiled in a citric acid buffer (pH 6.0) and immunofluorescence was performed. In situ TUNEL was performed on the above tissue section using a TUNEL kit (Roche Applied Sciences, Penzberg, GER), and the images thereof were obtained using a confocal scanning microscope.

[5] = system: AGTR1-overexpressed SK-BR-3; test: Confocal imaging of Cy3-coupled aptamers binding to / internalizing in AGTR1-positive cells; format: cell-based, human; conditions: 500 nM Cy3-coupled aptamer, 10^7 cells, room temperature; compared among SEQ ID NOS:1 to 6
Protocol: 1) 100 μl (10^7 cells) of target cells, namely AGTR1-overexpressed SK-BR-3, and 100 μl of 500 nM aptamer were reacted at room temperature and imaged using a confocal microscope. The aptamers have respective base sequences of SEQ ID NOS:1 to 6, the end of each of which is coupled with a fluorescence dye Cy3.

| Compound | expression of p-His3 (confocal, FIG. 4) [1] | expression of p-His3 (confocal, FIG. 4) [2] | apoptosis rate (sub-G1%) (FIG. 6) [3] | apoptosis rate (sub-G1%) (FIG. 6) [4] | growth of tumors (tumor volume, FIG. 7) (MCF7-AGTR1 cancer cells) | internalization / fluorescence intensity (confocal, FIG. 3) [5] |
| --- | --- | --- | --- | --- | --- | --- |
| COc1cc2cc(c1Cl)N(C)C(=O)C[C@H](OC(=O)[C@H](C)N(C)C(C)=O)[C@]1(C)O[C@H]1[C@H](C)[C@@H]1C[C@@](O)(NC(=O)O1)[C@H](OC)/C=C/C=C(\C)C2 [DM1, maytansine] | observed regardless of whether HER2 was expressed or not | observed regardless of whether HER2 was expressed or not | relatively high | relatively high | – | – |
| Aptamer: DNA aptamer 5'-AAGTCGTCTTTGCCAAATACCGGTCTGTCGGTGGGTATTG-3' (SEQ ID NO:4) with thiol group introduced at the 3' terminus (DNA, 3' {SH}, backbone not given here) | – | – | remarkably low | remarkably low | partially inhibited | – |
| SEQ ID NO:4: ssDNA aptamer AAGTCGTCTTTGCCAAATACCGGTCTGTCGGTGGGTATTG; Cy3-coupled in the confocal test (DNA, backbone not given here; further chemistry not fully specified) | – | – | – | – | – | strongest fluorescence intensity |
